Values joined by “and” are separate entries in the source; they are usually repeats but may differ in a detail not shown here. Equal entries are not always repeated.

Format in all cases: biochemical
The nature of assay [1]: Fluorescent AGEs formation in a BSA-fructose/glucose system. The settings on record: for inhibition of fluorescent AGEs formation (BSA-抗糖化), 平均 (mean): mean of 3. Here is the method: Glycated protein was prepared in vitro by incubating BSA in the presence of D-glucose (GLC) and D-fructose (FRC). The DOF extract and specific standards were dissolved in DMSO:water (1:4). […] The assay was performed in triplicate, and AG was used as a positive control. The percentage inhibition of fluorescent AGE formation was calculated using the following equation: […] Where IF sample is fluorescence intensity in the presence of samples and BSA, IF sample control is fluorescence intensity in the presence of samples without BSA, IF control is fluorescence intensity without samples, and IF blank control is fluorescence intensity without samples and BSA.

The nature of assay [2]: ABTS·+ decolourisation capacity. The method, then: Fast colourimetric methods were slightly modified for the in vitro assessment of DPPH· scavenging ([19]), ABTS·+ decolourisation capacity ([20]), and total antioxidant capacity of FRAP ([21]). The stock solutions of derivatisation reagents were diluted as follows before measurement: DPPH was diluted with absolute ethanol until the absorbance was 0.8 ± 0.05 at λ = 517 nm. ABTS working solution was prepared with phosphate buffer (0.2 M, pH 7.4) to display absorbance of 0.8 ± 0.05 at λ = 729 nm, based on a previous study ([22]). The FRAP solution was prepared according to the instructions of the FRAP kit. Absorbances were measured using an automatic microplate reader (Molecular Group Ltd., USA), and all analyses were performed using 96-well plates. All measurements were performed in triplicate, and Trolox was used as a positive control.
For ABTS·+ decolourisation capacity, 100 μl of ABTS working solution was mixed with 200 μl of sample solution, and the absorbance was recorded after 10 min at 729 nm. Phosphate buffer (0.2 M, pH 7.4) was used as a negative control.
DPPH· and ABTS·+ radical scavenging activities of the tested sample were both calculated using the following formula:
% inhibition = (A control − A sample)/A control × 100
Where A control and A sample represent the absorbance of the control and test samples, respectively. The IC50 was calculated graphically from the dose-inhibition curves.

Assay [3] in a line: FRAP total antioxidant capacity.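 For all read-outs here: colourimetric FRAP kit assay read as absorbance in 96-well plates, values as mM FeSO4 via standard curve, EC1 being sample concentration matching 1.0 mmol/L FeSO4, Trolox positive control.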 The settings on record: for 标准曲线对应浓度 mM FeSO4 (FRAP, FeSO4 equivalent from standard curve): individual replicates; for 标准曲线对应浓度 mM FeSO4, mean: mean of 3.
The nature of another assay: DPPH· scavenging.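 Note: colourimetric DPPH radical scavenging in 96-well plates, absorbance read-out, percent inhibition relative to ethanol control absorbance, IC50 derived graphically from dose-inhibition curves.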 A general note: The DPPH test is a chemical assay of radical scavenging.
The target in a further assay is T1, COX-2 (Homo sapiens, UniProt P35354).
T1 construct: purchased Beyotime S0168
T1 sequence (P35354 18-604): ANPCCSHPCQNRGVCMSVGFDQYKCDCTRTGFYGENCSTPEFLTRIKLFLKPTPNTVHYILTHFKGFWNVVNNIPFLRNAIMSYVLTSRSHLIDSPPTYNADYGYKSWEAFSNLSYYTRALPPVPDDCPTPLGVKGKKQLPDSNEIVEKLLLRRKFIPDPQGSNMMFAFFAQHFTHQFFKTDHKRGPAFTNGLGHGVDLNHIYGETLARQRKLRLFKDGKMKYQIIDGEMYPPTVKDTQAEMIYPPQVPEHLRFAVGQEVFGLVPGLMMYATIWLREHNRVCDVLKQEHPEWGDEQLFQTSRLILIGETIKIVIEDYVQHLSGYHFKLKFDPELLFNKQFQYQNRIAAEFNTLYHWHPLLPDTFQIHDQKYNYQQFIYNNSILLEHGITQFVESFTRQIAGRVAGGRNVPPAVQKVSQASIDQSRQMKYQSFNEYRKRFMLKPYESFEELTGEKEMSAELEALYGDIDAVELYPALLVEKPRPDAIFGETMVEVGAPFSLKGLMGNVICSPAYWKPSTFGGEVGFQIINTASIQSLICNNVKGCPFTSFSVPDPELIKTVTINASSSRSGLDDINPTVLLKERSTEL
Briefly: Anti-COX-2 assay (COX-2 Inhibitor Screening Kit). The settings on record: single replicates.

Setting [4] is: upper part of sheet (extract series), positive control also given in μM.
[5] abbreviates: lower part of sheet (compound series).

Turning to `O=C(O)CC(=O)OC[C@H]1O[C@@H](Oc2c(-c3ccc(O)c(O)c3)oc3cc(O)cc(O)c3c2=O)[C@H](O)[C@@H](O)[C@@H]1O`, the “inhibition of fluorescent AGEs formation (BSA-抗糖化), single replicate” value in assay [1] (15.625 µM) was 10.51% and 15.35% and 23.11%; in assay [1] (31.25 µM) it was 5.08% and 5.86% and 10.67%; in assay [1] (62.5 µM) it was 17.13% and 15.89% and 16.80%; in assay [1] (125 µM), 26.98% and 29.78% and 30.07%; in assay [1] (250 µM), 45.50% and 47.09% and 47.76%; in assay [1] (500 µM), 61.62% and 62.32% and 63.30%. Moreover, the “inhibition of fluorescent AGEs formation (BSA-抗糖化), single replicate” value in assay [1] (1000 µM) is 77.56% and 77.94% and 77.85%; in assay [1] (2000 µM), 88.53% and 88.63% and 88.83%; in assay [1] (4000 µM), 94.35% and 94.74% and 94.79%. For the same compound, the “inhibition of fluorescent AGEs formation (BSA-抗糖化), 平均 (mean)” value in assay [1] (31.25 µM) came to 7.20%; in assay [1] (62.5 µM), 16.61%; in assay [1] (125 µM), 28.94%; in assay [1] (250 µM), 46.78%; in assay [1] (500 µM) it was 62.41%; in assay [1] (1000 µM), 77.78%. For the same compound, the “inhibition of fluorescent AGEs formation (BSA-抗糖化), 平均 (mean)” value in assay [1] (2000 µM) was 88.66%; in assay [1] (4000 µM), 94.62%. In addition, the IC50 in assay [1] (BSA-抗糖化, mean of 3 replicate IC50, read-out: IC50µM, mean) was 288 µM; in assay [1] (BSA-抗糖化, per replicate curve, read-out: IC50µM, single replicate) it was 306 µM and 289 µM and 270 µM.
Consider `Cc1c(C)c2c(c(C)c1O)CCC(C)(C(=O)O)O2` (centres unmarked) [Trolox, 6-hydroxyl-2,5,7,8-tetra-methylchroman-2-carboxylic acid, reference compound], for which the ABTS scavenging rate in assay [2] (7.8125 ug/ml, single replicate wells) is 8.24% and 9.20% and 7.27%; in assay [2] (15.625 ug/ml, single replicate wells) it was 16.72% and 19.40% and 19.88%; in assay [2] (31.25 ug/ml, single replicate wells), 61.34% and 52.07% and 52.74%; in assay [2] (62.5 ug/ml, single replicate wells), 94.28% and 95.58% and 92.94%; in assay [2] (125 ug/ml, single replicate wells), 96.25% (2×) and 96.22%; in assay [2] (250 ug/ml, single replicate wells) it was 96.32% and 96.28% and 96.27%. The ABTS scavenging rate is 5.05% and 4.88% and 5.29% in assay [2] (0.5mM series, concentration 7.8125 (unit not given), replicate wells); 12.72% and 13.81% and 12.64% in assay [2] (0.5mM series, concentration 15.625 (unit not given), replicate wells); 31.58% and 33.31% and 33.45% in assay [2] (0.5mM series, concentration 31.25 (unit not given), replicate wells); 67.91% and 69.65% and 70.29% in assay [2] (0.5mM series, concentration 62.5 (unit not given), replicate wells); 99.61% and 99.52% and 99.85% in assay [2] (0.5mM series, concentration 125 (unit not given), replicate wells); 99.86% and 99.73% and 99.90% in assay [2] (0.5mM series, concentration 250 (unit not given), replicate wells). Besides, the ABTS scavenging rate in assay [2] (0.5mM series, concentration 500 (unit not given), replicate wells) is 99.85% and 99.75% and 99.73%; in assay [2] (500 ug/ml, single replicate wells), 96.17% and 96.23% and 96.35%. Also, the IC50 is 145.7 ± 1.22 µM in assay [2] (mean ± SD, n = 3); 111 µM in assay [2] (setting [4]); 159 ± 4.47 µM in the assay “DPPH· scavenging” (mean ± SD, n = 3); 98.8 µM in “DPPH· scavenging” (setting [4]). The “标准曲线对应浓度 mM FeSO4 (FRAP, FeSO4 equivalent from standard curve)” value in assay [3] (0.15 mM (37.5 μg/ml)) was 0.9597 mM FeSO4 and 0.8823 mM FeSO4 and 0.8550 mM FeSO4; in assay [3] (0.3 mM (75 μg/ml)), 1.6552 mM FeSO4 and 1.6329 mM FeSO4 and 1.5219 mM FeSO4; in assay [3] (0.6 mM (150 μg/ml)), 3.1630 mM FeSO4 and 2.8987 mM FeSO4 and 2.7627 mM FeSO4; in assay [3] (0.9 mM (225 μg/ml)) it was 4.4046 mM FeSO4 and 4.2357 mM FeSO4 and 4.0364 mM FeSO4; in assay [3] (1.2 mM (300 μg/ml)) it was 5.8342 mM FeSO4 and 5.5270 mM FeSO4 and 5.3675 mM FeSO4; in assay [3] (1.5 mM (375 μg/ml)) it was 6.9332 mM FeSO4 and 6.7909 mM FeSO4 and 6.4969 mM FeSO4. Besides, the “标准曲线对应浓度 mM FeSO4, mean” value in assay [3] (0.15 mM (37.5 μg/ml)) is on record as 0.8990 mM FeSO4; in assay [3] (0.3 mM (75 μg/ml)) it was 1.6033 mM FeSO4; in assay [3] (0.6 mM (150 μg/ml)) it was 2.9415 mM FeSO4; in assay [3] (0.9 mM (225 μg/ml)), 4.2256 mM FeSO4; in assay [3] (1.2 mM (300 μg/ml)) it was 5.5762 mM FeSO4; in assay [3] (1.5 mM (375 μg/ml)), 6.7403 mM FeSO4. For the same compound, the “FRAP EC1” value in assay [3] (setting [5]) was determined as 559.8 ± 19.4 µM; in assay [3] (mean ± SD, n = 3), 559.8 ± 19.4 µM; in assay [3] (upper part of sheet (extract series)) it was 55.35 ± 5.22 µg/mL. Also, the “DPPH scavenging (sheet "DPPH"), single replicate” value is 32.84% and 29.98% and 33.39% in the assay “DPPH· scavenging” (15.625 ug/ml); 58.95% and 55.65% and 57.84% in “DPPH· scavenging” (31.25 ug/ml); 84.01% and 87.99% and 89.81% in the assay “DPPH· scavenging” (62.5 ug/ml); 89.42% and 88.80% and 89.64% in “DPPH· scavenging” (125 ug/ml); 88.55% and 89.46% and 90.81% in the assay “DPPH· scavenging” (250 ug/ml); 93.00% and 92.15% and 93.91% in “DPPH· scavenging” (500 ug/ml). Moreover, the “DPPH scavenging (sheet "DPPH"), single replicate” value in “DPPH· scavenging” (1000 ug/ml) was 95.26% and 95.19% and 95.32%.
In the case of `O=c1cc(-c2ccc(O)cc2)oc2c(C3OC(CO)C(O)C(O)C3O)c(O)c(C3OCC(O)C(O)C3O)c(O)c12` (centres unmarked) [compound 14, Vicenin-1], the IC50 in assay [2] (mean ± SD, n = 3) was 96.4 ± 2.11 µM; in assay [1] (mean ± SD, n = 3, read-out: BSA-glycation IC50), 256 ± 5.44 µM; in “DPPH· scavenging” (mean ± SD, n = 3) it was more than 5000 µM. In addition, the COX-2 inhibition was -4.26% on COX-2 (31.25 μM, listed as T6, 31.25 µM); -25.49% and -4.46% on COX-2 (62.5 μM, listed as T6, 62.5 µM); -10.40% on COX-2 (125 μM, listed as T6, 125 µM); -29.71% and -20.21% on COX-2 (500 μM, listed as T6, 500 µM); -42.43% and -38.19% at COX-2 (1000 μM, listed as T6, 1000 µM). The “FRAP EC1” value in assay [3] (setting [5]) is more than 5000 µM.

For the origin of these results see article PMC10064984, “Anti-cyclooxygenase, anti-glycation, and anti-skin aging effect of Dendrobium officinale flowers’ aqueous extract and its phytochemical validation in aging” (Frontiers in Immunology, 2023).
